For the test, the target named is human TrkA receptor (Homo sapiens (Human), UniProt P04629). The experiment in a line: TrkA functional activity, DiscoverX PathHunter assay. In kind it is cell-based. Particulars: U2OS cells expressing human TrkA-PK, Shc1-EA and p75NTR; compound 1 h, then NGF at ~80% of maximal response for 3 h; luminescence.
human TrkA receptor, sequence (P04629 33-796): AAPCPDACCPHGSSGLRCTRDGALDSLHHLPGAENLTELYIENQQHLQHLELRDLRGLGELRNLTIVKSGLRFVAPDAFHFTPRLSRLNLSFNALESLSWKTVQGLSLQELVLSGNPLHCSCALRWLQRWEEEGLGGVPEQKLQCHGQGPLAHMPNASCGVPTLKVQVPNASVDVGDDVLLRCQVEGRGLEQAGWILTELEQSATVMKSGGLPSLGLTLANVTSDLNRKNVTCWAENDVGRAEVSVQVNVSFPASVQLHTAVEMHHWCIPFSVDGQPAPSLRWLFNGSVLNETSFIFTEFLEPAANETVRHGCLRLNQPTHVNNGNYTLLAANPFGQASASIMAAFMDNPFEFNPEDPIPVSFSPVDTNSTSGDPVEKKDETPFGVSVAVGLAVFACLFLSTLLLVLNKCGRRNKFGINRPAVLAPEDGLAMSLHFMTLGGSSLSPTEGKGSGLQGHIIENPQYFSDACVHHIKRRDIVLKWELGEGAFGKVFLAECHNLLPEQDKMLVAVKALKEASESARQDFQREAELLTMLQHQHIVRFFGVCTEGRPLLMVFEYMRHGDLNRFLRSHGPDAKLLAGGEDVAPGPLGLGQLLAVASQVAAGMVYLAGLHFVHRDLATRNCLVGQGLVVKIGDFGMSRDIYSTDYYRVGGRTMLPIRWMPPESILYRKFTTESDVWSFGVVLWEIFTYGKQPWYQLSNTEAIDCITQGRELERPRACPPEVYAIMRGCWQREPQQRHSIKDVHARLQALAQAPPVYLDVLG

Procedure: TrkA functional activity was measured using a DiscoverX PathHunter assay. In this assay, U2OS cells express the human TrkA receptor as a fusion with the weakly complementing fragment of B-galactosidase, which DiscoverX calls “Prolink (PK)”; additionally, Shc1 is fused with a larger fragment, which is called “Enzyme Acceptor (EA)”. Activation of the TrkA receptor, upon NGF addition, results in the kinase domain being phosphorylated, resulting in subsequent recruitment of Shc1-EA protein. That recruitment results in an active B-galactosidase enzyme that is detected by addition of a chemiluminescent substrate. The human p75^NTR protein was also expressed as a co-receptor for NGF.
All reagents were purchased from DiscoverX, except for the receptor agonists (NGF, BDNF, NT3) which were purchased from Peprotech. Cells were expanded and frozen into cryovials, and stored in the vapor phase of liquid nitrogen, and thawed immediately before use. Thawed cells were added to a 384-well plate at 7500 cells/well, and allowed to incubate overnight. Compound at various concentrations was added the following morning and allowed to incubate on cells for 1 h. Then, NGF was added at a concentration sufficient to elicit ˜80% of a maximal response and allowed to incubate for 3 h at ambient temperature. DiscoverX PathHunter detection reagent was then added and the plate was further incubated for 1 h in the dark. The plate was then read via luminescence on the Perkin Elmer Envision.

The term IC50 denotes the concentration needed to halve the response being measured. Lower therefore signals higher potency. Turning to `CC(O)c1ccc2c(NC(=O)c3cc(-c4ncccn4)c(C(F)(F)F)cc3F)n(-c3ccccc3)nc2c1` (single isomer, unassigned) [Compound 19, (R and S)-2-Fluoro-N-(6-(1-hydroxyethyl)-2-phenyl-2H-indazol-3-yl)-5-(pyrimidin-2-yl)-4-(trifluoromethyl)benzamide, isomers A and B], it took 1.9 nM to reach half-maximal inhibition (IC50). `CC(O)c1ccc2c(NC(=O)c3cc(-c4ncccn4)c(C(F)(F)F)cc3F)n(-c3ccccc3)nc2c1` (single isomer, unassigned) [Compound 20, (R and S)-2-Fluoro-N-(6-(1-hydroxyethyl)-2-phenyl-2H-indazol-3-yl)-5-(pyrimidin-2-yl)-4-(trifluoromethyl)benzamide, isomers A and B] showed an IC50 of 2.9 nM. As for `CC(O)c1cnc2c(NC(=O)c3cc(-c4cc[nH]n4)c(C(F)(F)F)cc3F)n(-c3ccccc3)nc2c1` (single isomer, unassigned) [Compound 21, 2-Fluoro-N-(6-(1-hydroxyethyl)-2-phenyl-2H-pyrazolo[4,3-b]pyridin-3-yl)-5-(1H-pyrazol-3-yl)-4-(trifluoromethyl)benzamide, isomers A and B], 0.69 nM corresponded to half-maximal inhibition (IC50). Then `CC(O)c1cnc2c(NC(=O)c3cc(-c4cc[nH]n4)c(C(F)(F)F)cc3F)n(-c3ccccc3)nc2c1` (single isomer, unassigned) [Compound 22, 2-Fluoro-N-(6-(1-hydroxyethyl)-2-phenyl-2H-pyrazolo[4,3-b]pyridin-3-yl)-5-(1H-pyrazol-3-yl)-4-(trifluoromethyl)benzamide, isomers A and B], with 1.2 nM; and `O=C(Nc1c2ccc(C(O)C(F)(F)F)cc2nn1-c1ccccc1)c1cc(-c2ncccn2)c(C(F)(F)F)cc1F` (single isomer, unassigned) [Compound 52, (R or S)-2-Fluoro-N-{2-phenyl-6-[(1S)-2,2,2-trifluoro-1-hydroxyethyl]-2H-indazol-3-yl}-5-pyrimidin-2-yl-4-(trifluoromethyl)benzamide, isomers A and B], with 2.8 nM; and `O=C(Nc1c2ccc(C(O)C(F)(F)F)cc2nn1-c1ccccc1)c1cc(-c2ncccn2)c(C(F)(F)F)cc1F` (single isomer, unassigned) [Compound 53, (R or S)-2-Fluoro-N-{2-phenyl-6-[(1S)-2,2,2-trifluoro-1-hydroxyethyl]-2H-indazol-3-yl}-5-pyrimidin-2-yl-4-(trifluoromethyl)benzamide, isomers A and B], with 29 nM. `CC(N)c1ccc2c(NC(=O)c3cc(-c4ncccn4)c(C(F)(F)F)cc3F)n(-c3ccccc3)nc2c1` (single isomer, unassigned) [Compound 69, (R or S)-N-{6-[1-aminoethyl]-2-phenyl-2H-indazol-3-yl}-2-fluoro-5-pyrimidin-2-yl-4-(trifluoromethyl)benzamide] showed an IC50 of 7.1 nM. For `CC(N)c1ccc2c(NC(=O)c3cc(-c4ncccn4)c(C(F)(F)F)cc3F)n(-c3ccccc3)nc2c1` (single isomer, unassigned) [Compound 70, (R or S)-N-{6-[1-aminoethyl]-2-phenyl-2H-indazol-3-yl}-2-fluoro-5-pyrimidin-2-yl-4-(trifluoromethyl)benzamide], half-maximal inhibition (IC50) was put at 14 nM. In the case of `O=C(Nc1c2ccc(C3CCCN3)cc2nn1-c1ccccc1)c1cc(-c2ncccn2)c(C(F)(F)F)cc1F` (single isomer, unassigned) [Compound 102, (R and S)-2-Fluoro-N-(2-phenyl-6-(pyrrolidin-2-yl)-2H-indazol-3-yl)-5-(pyrimidin-2-yl)-4-(trifluoromethyl)benzamide, isomers A and B], the midpoint of inhibition, the IC50, lay at 29 nM. The same measure for `O=C(Nc1c2ccc(C3CCCN3)cc2nn1-c1ccccc1)c1cc(-c2ncccn2)c(C(F)(F)F)cc1F` (single isomer, unassigned) [Compound 103, (R and S)-2-Fluoro-N-(2-phenyl-6-(pyrrolidin-2-yl)-2H-indazol-3-yl)-5-(pyrimidin-2-yl)-4-(trifluoromethyl)benzamide, isomers A and B]: 29 nM; for `CC(O)c1ccc2nn(-c3ccccc3)c(NC(=O)c3ccc(C(F)(F)F)c(-c4ccn(C)n4)c3)c2c1` (single isomer, unassigned; isomer a) [Compound 23, (R or S)-N-[5-(1-hydroxyethyl)-2-phenyl-2H-indazol-3-yl]-3-(1-methyl-1H-pyrazol-3-yl)-4-(trifluoromethyl)benzamide, isomer A]: 3.7 nM. Turning to `CC(O)c1cnc2c(NC(=O)c3cc(-c4ncccn4)c(C(F)(F)F)cc3F)n(-c3ccccc3)nc2c1` (single isomer, unassigned; isomer a) [Compound 29, (R or S)-2-fluoro-N-[6-(1-hydroxyethyl)-2-phenyl-2H-pyrazolo[4,3-b]pyridin-3-yl]-5-pyrimidin-2-yl-4-(trifluoromethyl)benzamide, isomer A], the IC50 came to 1.8 nM. Then `CC(O)c1ccc2nn(-c3ccccc3)c(NC(=O)c3cc(-c4cc[nH]n4)c(C(F)(F)F)cc3F)c2n1` (single isomer, unassigned; isomer a) [Compound 31, (R or S)-2-fluoro-N-[5-(1-hydroxyethyl)-2-phenyl-2H-pyrazolo[4,3-b]pyridin-3-yl]-5-(1H-pyrazol-3-yl)-4-(trifluoromethyl)benzamide, isomer A], with 5.2 nM. Take `CC(O)c1cnc2c(NC(=O)c3cc(-c4ccn(C)n4)c(C(F)(F)F)cc3F)n(-c3ccccc3)nc2c1` (single isomer, unassigned; isomer a) [Compound 33, (R or S)-2-fluoro-N-[6-(1-hydroxyethyl)-2-phenyl-2H-pyrazolo[4,3-b]pyridin-3-yl]-5-(1-methyl-1H-pyrazol-3-yl)-4-(trifluoromethyl)benzamide, isomer A]: half-maximal inhibition (IC50) was put at 0.25 nM.

Turning to `CC(O)c1cnc2c(NC(=O)c3cc(-c4ncccn4)c(C(F)(F)F)cc3Cl)n(-c3ccccc3)nc2c1` (single isomer, unassigned; isomer a) [Compound 35, (R or S)-2-chloro-N-[6-(1-hydroxyethyl)-2-phenyl-2H-pyrazolo[4,3-b]pyridin-3-yl]-5-pyrimidin-2-yl-4-(trifluoromethyl)benzamide, isomer A], the midpoint of inhibition, the IC50, lay at 1.7 nM.

For `CC(O)c1ccc2c(NC(=O)c3cc(-c4ncccn4)c(C(F)(F)F)cc3Cl)n(-c3ccccc3)nc2c1` (single isomer, unassigned; isomer a) [Compound 37, (R or S)-2-chloro-N-[6-(1-hydroxyethyl)-2-phenyl-2H-indazol-3-yl]-5-pyrimidin-2-yl-4-(trifluoromethyl)benzamide, isomer A], the IC50 worked out at 4.4 nM. Compound `O=C(Nc1c2cc(C(O)C(F)(F)F)ccc2nn1-c1ccccc1)c1cc(-c2ncccn2)c(C(F)(F)F)cc1F` (single isomer, unassigned; isomer a) [Compound 54, (R or S)-2-fluoro-N-(2-phenyl-5-(2,2,2-trifluoro-1-hydroxyethyl)-2H-indazol-3-yl)-5-(pyrimidin-2-yl)-4-(trifluoromethyl)benzamide, isomer A] displayed an IC50 of 23 nM. For `O=C(Nc1c2ccc(C(O)C(F)F)cc2nn1-c1ccccc1)c1cc(-c2ncccn2)c(C(F)(F)F)cc1F` (single isomer, unassigned; isomer a) [Compound 56, (R or S)-N-[6-(2,2-difluoro-1-hydroxyethyl)-2-phenyl-2H-indazol-3-yl]-2-fluoro-5-pyrimidin-2-yl-4-(trifluoromethyl)benzamide, isomer A], the IC50 amounted to 2.8 nM.

Regarding `O=C(Nc1c2cc(C(O)C(F)F)ccc2nn1-c1ccccc1)c1cc(-c2ncccn2)c(C(F)(F)F)cc1F` (single isomer, unassigned; isomer a) [Compound 58, (R or S)-N-[5-(2,2-difluoro-1-hydroxyethyl)-2-phenyl-2H-indazol-3-yl]-2-fluoro-5-pyrimidin-2-yl-4-(trifluoromethyl)benzamide, isomer A], the IC50 stood at 6.9 nM.

`O=C(Nc1c2ncc(C(O)CO)cc2nn1-c1ccccc1)c1cc(-c2ncccn2)c(C(F)(F)F)cc1Cl` (single isomer, unassigned; isomer a) [Compound 64, (R or S)-2-chloro-N-[6-(1,2-dihydroxyethyl)-2-phenyl-2H-pyrazolo[4,3-b]pyridin-3-yl]-5-pyrimidin-2-yl-4-(trifluoromethyl)benzamide, isomer A]: inhibition was half-maximal at 15 nM (IC50). Then `CC(O)c1ccc2nn(-c3ccccc3)c(NC(=O)c3ccc(C(F)(F)F)c(-c4ccn(C)n4)c3)c2c1` (single isomer, unassigned; isomer b) [Compound 24, (R or S)-N-[5-(1-hydroxyethyl)-2-phenyl-2H-indazol-3-yl]-3-(1-methyl-1H-pyrazol-3-yl)-4-(trifluoromethyl)benzamide, isomer B], with 2.4 nM.

Regarding `CC(O)c1cnc2c(NC(=O)c3cc(-c4ncccn4)c(C(F)(F)F)cc3F)n(-c3ccccc3)nc2c1` (single isomer, unassigned; isomer b) [Compound 30, (R or S)-2-fluoro-N-[6-(1-hydroxyethyl)-2-phenyl-2H-pyrazolo[4,3-b]pyridin-3-yl]-5-pyrimidin-2-yl-4-(trifluoromethyl)benzamide, isomer B], it took 1.1 nM to reach half-maximal inhibition (IC50). The same measure for `CC(O)c1ccc2nn(-c3ccccc3)c(NC(=O)c3cc(-c4cc[nH]n4)c(C(F)(F)F)cc3F)c2n1` (single isomer, unassigned; isomer b) [Compound 32, (R or S)-2-fluoro-N-[5-(1-hydroxyethyl)-2-phenyl-2H-pyrazolo[4,3-b]pyridin-3-yl]-5-(1H-pyrazol-3-yl)-4-(trifluoromethyl)benzamide, isomer B]: 5.1 nM. In turn, `CC(O)c1cnc2c(NC(=O)c3cc(-c4ccn(C)n4)c(C(F)(F)F)cc3F)n(-c3ccccc3)nc2c1` (single isomer, unassigned; isomer b) [Compound 34, (R or S)-2-fluoro-N-[6-(1-hydroxyethyl)-2-phenyl-2H-pyrazolo[4,3-b]pyridin-3-yl]-5-(1-methyl-1H-pyrazol-3-yl)-4-(trifluoromethyl)benzamide, isomer B] yielded an IC50 of 0.48 nM.

Values taken from patent US9862707B2, “TrkA kinase inhibitors, compositions and methods thereof” (Merck Sharp & Dohme Corp., priority 2014, dated 2018).
